Measurements published in ChEMBL document CHEMBL4346687, “Design, synthesis and biological evaluation of novel uracil derivatives bearing 1, 2, 3-triazole moiety as thymidylate synthase (TS) inhibitors and as potential antitumor drugs” (Eur J Med Chem, 2019).

Legend:
A549 [1] = assay: Antiproliferative activity against human A549 cells assessed as reduction in cell viability at 1.25 uM after 24 hrs by MTT assay; type: functional; settings: A549, 24 h
A549 [2] = assay: Antiproliferative activity against human A549 cells assessed as reduction in cell viability at 10 uM after 24 hrs by MTT assay; type: functional; settings: A549, 24 h
A549 [3] = assay: Antiproliferative activity against human A549 cells assessed as reduction in cell viability at 0.625 uM after 24 hrs by MTT assay; type: functional; settings: A549, 24 h
[4] = Selectivity index, ratio of CC50 for cytotoxicity against human HPAEpic cells to IC50 for antiproliferative activity against human A549 cells; settings: HPAEpic cells (CC50) versus A549 cells (IC50)
OVCAR-3 = assay: cells; settings: Homo sapiens, OVCAR-3, 24 h
Description: Antiproliferative activity against human OVCAR3 cells assessed as reduction in cell viability after 24 hrs by MTT assay

[5] = Selectivity index, ratio of CC50 for cytotoxicity against human L02 cells to IC50 for antiproliferative activity against human HepG2 cells; settings: L02 cells (CC50) versus HepG2 cells (IC50)
[6] = Selectivity index, ratio of CC50 for cytotoxicity against human IOSE-80 cells to IC50 for antiproliferative activity against human OVCAR3 cells; settings: IOSE-80 cells (CC50) versus OVCAR3 cells (IC50)
Thymidylate synthase = Thymidylate synthase (Homo sapiens, UniProt P04818); assay: Inhibition of human thymidylate synthase using dUMP as substrate by spectrophotometric method
Sequence of Thymidylate synthase (P04818 whole entry): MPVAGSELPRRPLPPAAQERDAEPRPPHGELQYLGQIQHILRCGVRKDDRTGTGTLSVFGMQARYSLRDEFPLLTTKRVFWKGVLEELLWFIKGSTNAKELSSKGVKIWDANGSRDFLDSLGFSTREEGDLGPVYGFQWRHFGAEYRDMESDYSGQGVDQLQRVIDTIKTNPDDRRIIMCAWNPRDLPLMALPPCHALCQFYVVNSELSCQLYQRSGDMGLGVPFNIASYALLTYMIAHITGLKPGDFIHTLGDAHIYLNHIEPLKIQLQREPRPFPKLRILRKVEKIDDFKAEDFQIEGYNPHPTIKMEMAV

HepG2 = assay: cells; settings: Homo sapiens, HepG2, 24 h
Description: Antiproliferative activity against human HepG2 cells assessed as reduction in cell viability after 24 hrs by MTT assay

A549 [7] = assay: Antiproliferative activity against human A549 cells assessed as reduction in cell viability at 5 uM after 24 hrs by MTT assay; type: functional; settings: A549, 24 h
[8] = Cytotoxicity against human L02 cells assessed as reduction in cell viability after 24 hrs by MTT assay; type: cell-based; settings: L02 cells
[9] = Cytotoxicity against human HPAEpic cells assessed as reduction in cell viability after 24 hrs by MTT assay; type: cell-based; settings: HPAEpic cells
[10] = Cytotoxicity against human IOSE-80 cells assessed as reduction in cell viability after 24 hrs by MTT assay; type: cell-based; settings: IOSE-80 cells
[11] = Selectivity index, ratio of CC50 for cytotoxicity against human GES-1 cells to IC50 for antiproliferative activity against human SGC7901 cells; settings: GES-1 cells (CC50) versus SGC7901 cells (IC50)
SGC-7901 = assay: cells; settings: Homo sapiens, SGC-7901, 24 h
Description: Antiproliferative activity against human SGC7901 cells assessed as reduction in cell viability after 24 hrs by MTT assay

A549 [12] = assay: Antiproliferative activity against human A549 cells assessed as reduction in cell viability at 20 uM after 24 hrs by MTT assay; type: functional; settings: A549, 24 h
[13] = Cytotoxicity against human GES-1 cells assessed as reduction in cell viability after 24 hrs by MTT assay; type: cell-based, GES1; settings: GES-1 cells

IC50 (OVCAR-3): 4.35 µM
IC50 (Thymidylate synthase): 2.04 µM
IC50 (HepG2): 3.73 µM
IC50 (SGC-7901): 6.96 µM
SMILES: Nc1nc2[nH]cc(CCc3ccc(C(=O)N[C@@H](CCC(=O)O)C(=O)O)cc3)c2c(=O)[nH]1 [PEMETREXED DISODIUM]
inhibition at 1.25 µM (A549 [1]): 39.9%
inhibition at 10 µM (A549 [2]): 58.7%
inhibition at 0.625 µM (A549 [3]): 27.2%
selectivity ratio [4]: 7.71
selectivity ratio [5]: 8.23
selectivity ratio [6]: 3.56
inhibition at 5 µM (A549 [7]): 47.1%
CC50 at 24 h [8]: 30.7 µM
CC50 at 24 h [9]: 25.4 µM
CC50 at 24 h [10]: 15.5 µM
selectivity ratio [11]: 3.25
inhibition at 20 µM (A549 [12]): 74.7%
CC50 at 24 h [13]: 22.6 µM
